Measured values taken from ChEMBL document CHEMBL5518202, “Discovery of a Potent Nicotinamide Phosphoribosyltransferase Activator for Improving Aging-associated Dysfunctions” (J Med Chem, 2024).

Molecular target: Nicotinamide phosphoribosyltransferase (Homo sapiens, UniProt P43490)
Assay: Binding affinity to NAMPT (unknown origin) assessed as dissociation constant incubated for 30 mins by microscale thermophoresis analysis

Sequence of Nicotinamide phosphoribosyltransferase (P43490 whole entry): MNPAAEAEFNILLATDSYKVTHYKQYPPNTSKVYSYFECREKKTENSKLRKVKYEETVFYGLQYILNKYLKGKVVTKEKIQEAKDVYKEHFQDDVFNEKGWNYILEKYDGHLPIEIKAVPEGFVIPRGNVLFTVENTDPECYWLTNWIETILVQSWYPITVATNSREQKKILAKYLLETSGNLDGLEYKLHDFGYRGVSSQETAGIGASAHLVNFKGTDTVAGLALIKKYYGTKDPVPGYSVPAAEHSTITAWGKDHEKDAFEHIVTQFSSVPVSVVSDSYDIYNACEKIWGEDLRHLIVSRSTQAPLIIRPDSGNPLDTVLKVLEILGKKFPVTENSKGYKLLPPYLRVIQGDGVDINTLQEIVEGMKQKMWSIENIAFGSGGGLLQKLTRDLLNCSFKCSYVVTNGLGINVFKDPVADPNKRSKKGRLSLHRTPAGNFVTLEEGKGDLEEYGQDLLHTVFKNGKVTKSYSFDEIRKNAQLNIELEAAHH

O=C(NCc1ccncc1)Nc1ccc(S(=O)(=O)N2CC3CCC(C2)O3)cc1
Kd: 6.82 µM
